Source: US3956287A, “7-[(2-Oxo-1-pyridinyl)acylamino]cephalosporin derivatives” (Richardson-Merrell Inc., priority 1973, dated 1976)
In brackets after ≈: the same amount, converted by molar mass. Structures can show the parent of a compound that is named as a salt. Where two headings read alike, the source gives them in different places.

Key:
Staphylococcus aureus = assay: in vitro antibacterial activity, minimal inhibiting concentration, Staphylococcus aureus; format: cell-based; settings: read-out: Minimal inhibiting concentration, Staphylococcus aureus
Experimental: (§1) Specific nutrient agar plates are completely innoculated with the various test organisms. Filter paper discs are placed on the surface of the agar and wetted with 0.1 ml of a solution containing 10, 100 and 1,000 micrograms of the test compound. Zones of inhibition of microbial growth are used to indicate the antibacterial activity of the test compound against the various test organisms employed.
(§2) The following table summarizes the in vitro activity in terms of a concentration required to inhibit the growth of various typical bacteria for the following representative compounds: 6-[2-(2-oxo-1-pyridinyl)acetylamino]penicillanic acid, sodium salt (1), 7-[2-(2-oxo-1-pyridinyl)acetylamino]desacetoxycephalosporanic acid, sodium salt (2), 6-[2-(6-methyl-2-oxo-1-pyridinyl)acetylamino]pencillanic acid (3), 6-[2-(2-oxo-1-pyridinyl)-2-methylacetylamino]penicillanic acid (4), 6-[2-(5-chloro-2-oxo-1-pyridinyl)acetylamino]penicillanic acid (5), 6-[2-(5-nitro-2-oxo-1-pyridinyl)acetylamino]penicillanic acid (6), 6-[ 2-(5-amino-2-oxo-1-pyridinyl)acetylamino]penicillanic acid (7), 6-[2-(3-methoxy-2-oxo-1-pyridinyl)acetylamino]penicillanic acid (8), and 7-[2-(2-oxo-1-pyridinyl)acetylamino]cephalosporanic acid (9).

[1] = tested on: Salmonella schottmuelleri; assay: in vitro antibacterial activity, minimal inhibiting concentration, Salmonella schottmuelleri; format: cell-based; settings: read-out: Minimal inhibiting concentration, Salmonella schottmuelleri
Experimental: as §1, §2

Streptococcus pyogenes = assay: in vitro antibacterial activity, minimal inhibiting concentration, Streptococcus pyogenes; format: cell-based; settings: read-out: Minimal inhibiting concentration, Streptococcus pyogenes
Experimental: as §1, §2

[2] = tested on: (Penicillinase Producing) Staphylococcus aureus; assay: in vitro antibacterial activity, minimal inhibiting concentration, penicillinase producing Staphylococcus aureus; format: cell-based; settings: read-out: Minimal inhibiting concentration, (Penicillinase Producing) Staphylococcus aureus
Experimental: as §1, §2

Acid Resistance = format: physicochemical
[3] = in vitro, filter paper discs on nutrient agar, 0.1 ml of solution containing 10, 100 and 1,000 micrograms
[4] = penicillinase producing strain, in vitro, filter paper discs on nutrient agar, 0.1 ml of solution containing 10, 100 and 1,000 micrograms

Row | MIC (Staphylococcus aureus; [3]) | MIC [1, 3] | MIC (Streptococcus pyogenes; [3]) | MIC [2, 4] | Acid Resistance (Acid Resistance) | Structure (SMILES) | MIC (Staphylococcus aureus) | MIC [1] | MIC (Streptococcus pyogenes) | MIC [2]
1 | 10 µg/mL (≈ 27.4 µM) | 1000 µg/mL (≈ 2740 µM) | 1000 µg/mL (≈ 2740 µM) | 1000 µg/mL (≈ 2740 µM) | Yes | Cc1cccc(=O)n1CC(=O)NC1C(=O)N2C1SC(C)(C)C2C(=O)O (centres unmarked) [Compound 3, 6-[2-(6-methyl-2-oxo-1-pyridinyl)acetylamino]pencillanic acid] |  |  |  | 
2 | 1000 µg/mL (≈ 2740 µM) | 1000 µg/mL (≈ 2740 µM) | 1000 µg/mL (≈ 2740 µM) | 1000 µg/mL (≈ 2740 µM) | Weak | CC(C(=O)NC1C(=O)N2[C@@H]1SC(C)(C)[C@@H]2C(=O)O)n1ccccc1=O (some centres unmarked) [Compound 4, 6-[2-(2-oxo-1-pyridinyl)-2-methylacetylamino]penicillanic acid] |  |  |  | 
3 | 10 µg/mL (≈ 27.3 µM) | 1000 µg/mL (≈ 2730 µM) | > 1000 µg/mL | > 1000 µg/mL | Yes | CC1(C)S[C@@H]2C(NC(=O)Cn3cc(N)ccc3=O)C(=O)N2[C@H]1C(=O)O (some centres unmarked) [Compound 7, 6-[2-(5-amino-2-oxo-1-pyridinyl)acetylamino]penicillanic acid] |  |  |  | 
4 | 10 µg/mL (≈ 25.9 µM) | 1000 µg/mL (≈ 2590 µM) | 1000 µg/mL (≈ 2590 µM) | > 1000 µg/mL | Yes | CC1(C)S[C@@H]2C(NC(=O)Cn3cc(Cl)ccc3=O)C(=O)N2[C@H]1C(=O)O (some centres unmarked) [Compound 5, 6-[2-(5-chloro-2-oxo-1-pyridinyl)acetylamino]penicillanic acid] |  |  |  | 
5 | 10 µg/mL (≈ 24.5 µM) | 100 µg/mL (≈ 245 µM) | 10 µg/mL (≈ 24.5 µM) | 1000 µg/mL (≈ 2450 µM) | Yes | CC(=O)OCC1=C(C(=O)O)N2C(=O)C(NC(=O)Cn3ccccc3=O)C2SC1 (centres unmarked) [Compound 9, 7-[2-(2-oxo-1-pyridinyl)acetylamino]cephalosporanic acid] |  |  |  | 
6 | 10 µg/mL (≈ 25.2 µM) | 1000 µg/mL (≈ 2520 µM) | > 1000 µg/mL | > 1000 µg/mL | Yes | CC1(C)S[C@@H]2C(NC(=O)Cn3cc([N+](=O)[O-])ccc3=O)C(=O)N2[C@H]1C(=O)O (some centres unmarked) [Compound 6, 6-[2-(5-nitro-2-oxo-1-pyridinyl)acetylamino]penicillanic acid] |  |  |  | 
7 | 10 µg/mL (≈ 26.2 µM) | 1000 µg/mL (≈ 2620 µM) |  | 1000 µg/mL (≈ 2620 µM) | Yes | COc1cccn(CC(=O)NC2C(=O)N3[C@@H]2SC(C)(C)[C@@H]3C(=O)O)c1=O (some centres unmarked) [Compound 8, 6-[2-(3-methoxy-2-oxo-1-pyridinyl)acetylamino]penicillanic acid] |  |  |  | 

Row | Structure (SMILES) | MIC (Staphylococcus aureus; [3]) | MIC [1, 3] | MIC (Streptococcus pyogenes; [3]) | MIC [2, 4] | Acid Resistance (Acid Resistance) | MIC (Staphylococcus aureus) | MIC [1] | MIC (Streptococcus pyogenes) | MIC [2]
8 | CC1=C(C(=O)O)N2C(=O)C(NC(=O)Cn3ccccc3=O)C2SC1 (centres unmarked) [Compound 2, 7-[2-(2-oxo-1-pyridinyl)acetylamino]desacetoxycephalosporanic acid, sodium salt] | 1000 µg/mL | > 1000 µg/mL | 1000 µg/mL | > 1000 µg/mL | Yes |  |  |  | 
9 | CC1(C)S[C@@H]2C(NC(=O)Cn3ccccc3=O)C(=O)N2[C@H]1C(=O)[O-].[Na+] (some centres unmarked) [Compound 1, 6-[2-(2-oxo-1-pyridinyl)acetylamino]penicillanic acid, sodium salt] |  |  |  |  | Yes | 10 µg/mL | 1000 µg/mL | 10 µg/mL | 1000 µg/mL
